Tests used:
[1] = molecular target: ConA (Canavalia ensiformis, UniProt P02866); test: Carbohydrate chip incubated with FITC-ConA, fluorescence scanner; assay type: binding; conditions: carbohydrate on aminooxy or hydrazide chip, FIG. 5(c)
Method: (§1) A solution (0.1 μl˜1 nl) of carbohydrates including mono-, di-, oligo- and polysaccharides in PBS buffer (pH 4.0-5.0) containing 30-50% glycerol is printed on the above-mentioned chip base by using a micropipette or microarrayer. In this process, the concentration of carbohydrates is preferably between 0.1 mM and 50 mM. After completion of printing, the chip is reacted at 40-60° C. for 8 hours or more, and then washed. Then, the chip is immersed in PBS buffer (pH 7.4) containing 0.1% Tween 20 and 1% BSA (bovine serum albumin) for 1 hour. The fabrication of carbohydrate chips is complete by washing the BSA-treated chip with buffer (pH 7.4) containing 0.1% Tween 20 three times for 15 minutes.
(§2) The fabricated carbohydrate chips are applied for studies on protein-carbohydrate interactions. For these studies, the carbohydrate chips are incubated with non-labeled or fluorophore-labeled proteins in buffer containing 0.1% Tween 20 for 1 hour. Proteins labeled by fluorescent dyes such as Cy3, Cy5 and FITC are commercially available, or can be prepared by reacting proteins with fluorescent dyes. Then, the protein-treated chips are washed with buffer containing 0.1% Tween 20 three times for 10 minutes in order to remove unbound proteins.
Carbohydrate chips are used for the rapid assessment of carbohydrate-protein interactions, which are involve in various biological processes and are of importance for the development of novel therapeutics, and for the fast diagnosis of carbohydrate-based diseases such as tumors and pathogens. For this purpose, each solution (sodium phosphate buffer containing 30% glycerol, pH 5.0) of twenty one of mono-, di-, oligo- and polysaccharides listed in Table 1 was printed on the solid support coated by aminooxy or hydrazide groups. […] According to the fluorescence intensity of the spots in chips after detecting with a fluorescence scanner, TV strongly is bound to N,N′-diacetylchitobiose (13), less strongly to GlcNAc (2) and sialyl Le^x (19), and weakly bound to GalNAc (5), LacNAc (15) and NeuNAcLacNAc (18) [see FIG. 5(a)].

[2] = test system: Triticum vulgaris (Cy3-TV, also known as wheat germ agglutinin); test: Carbohydrate chip incubated with Cy3-TV, fluorescence scanner; assay type: binding; conditions: carbohydrate on aminooxy or hydrazide chip, FIG. 5(a)
Method: as §1, §2
(§3) Carbohydrate chips are used for the rapid assessment of carbohydrate-protein interactions, which are involve in various biological processes and are of importance for the development of novel therapeutics, and for the fast diagnosis of carbohydrate-based diseases such as tumors and pathogens. For this purpose, each solution (sodium phosphate buffer containing 30% glycerol, pH 5.0) of twenty one of mono-, di-, oligo- and polysaccharides listed in Table 1 was printed on the solid support coated by aminooxy or hydrazide groups. The carbohydrate chips prepared from the method described in Example 3 were incubated with Cy3-TV, Cy5-AA and FITC-ConA. According to the fluorescence intensity of the spots in chips after detecting with a fluorescence scanner, TV strongly is bound to N,N′-diacetylchitobiose (13), less strongly to GlcNAc (2) and sialyl Le^x (19), and weakly bound to GalNAc (5), LacNAc (15) and NeuNAcLacNAc (18) [see FIG. 5(a)].

[3] = molecular target: T1, Aleuria aurantia (Cy5-AA) lectin (Aleuria aurantia, UniProt P18891); test: Carbohydrate chip incubated with Cy5-AA, fluorescence scanner; assay type: binding; conditions: carbohydrate on aminooxy or hydrazide chip, FIG. 5(b)
T1 sequence (P18891 1-313): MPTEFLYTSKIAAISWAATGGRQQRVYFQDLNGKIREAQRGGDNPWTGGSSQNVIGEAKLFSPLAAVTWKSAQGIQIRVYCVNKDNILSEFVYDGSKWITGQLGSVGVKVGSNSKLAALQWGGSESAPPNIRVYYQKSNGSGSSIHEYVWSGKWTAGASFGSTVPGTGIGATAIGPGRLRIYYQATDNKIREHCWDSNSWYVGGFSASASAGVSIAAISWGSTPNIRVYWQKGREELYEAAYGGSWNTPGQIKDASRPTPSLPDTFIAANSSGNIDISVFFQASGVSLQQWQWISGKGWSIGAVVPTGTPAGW
Method: as §1, §2, §3

[4] = test system: anti-sialyl Le^x antibody; test: Carbohydrate chip incubated with anti-sialyl Le^x antibody, fluorescence image; assay type: binding; conditions: FIG. 5(d)
Method: as §1, §2
Sialyl Le^x is an important biological recognition marker and an interesting target for drug discovery. […]

[5] = test system: E. coli ORN178, expressing mannose-binding adhesin on pili; test: Carbohydrate chip probed with E. coli pre-incubated with propidium iodide; conditions: FIG. 5(e)
Method: FIG. 5 is a fluorescent image of carbohydrate chips composed of 21 carbohydrates probed with (a) Cy3-TV, (b) Cy5-AA, (c) FITC-ConA, (d) anti-Sialyl Le^x antibody and (e) E. Coli pre-incubated with propidium iodide (PI).
Many bacteria including pathogens express specific carbohydrate-binding proteins on pili. The initial attachment of pathogens to host cells through specific carbohydrate-protein interactions confers pathogenic properties. For example, a mannose-binding protein of type 1 fimbriated E. coli is known to cause common urinary tract infection through its binding to glycans on host cells (Connell, H. et al., Proc. Natl. Acad. Sci. USA 1996, 93, 9827). Thus, carbohydrate chips were also used to detect pathogens for diagnosis. E. coli ORN178, expressing mannose-binding adhesin on pili, binds to spots containing mannose, mannobiose and mannan [see FIG. 5(e)].

Row | Compound | binding of TV to immobilized carbohydrate (fluorescence intensity of the spots) [2] | binding of AA to immobilized carbohydrate (fluorescence intensity of the spots) [3] | further results
1 | OC[C@H]1O[C@H](O[C@H]2[C@H](O)[C@@H](O)C(O)O[C@@H]2CO)[C@H](O)[C@@H](O)[C@@H]1O (mixture of isomers) [compound 11, Maltose] |  |  | binding of ConA to immobilized carbohydrate (fluorescence intensity of the spots) [1]: very weak binding
2 | CC(=O)N[C@H]1C(O)O[C@H](CO)[C@@H](O)[C@@H]1O (stereo partly shown) [compound 2, N-acetylglucosamine] | less strongly |  | 
3 | CC(=O)N[C@H]1C(O)O[C@H](CO)[C@H](O)[C@@H]1O (stereo partly shown) [compound 5, N-acetylgalactosamine] | weakly bound |  | 
4 | C[C@H](O)[C@@H](O)[C@@H](O)[C@H](O)C=O [compound 8, fucose] |  | strongly bound | 
5 | CC(=O)N[C@H]1[C@H](O[C@H]2[C@H](O)[C@@H](NC(C)=O)C(O)O[C@@H]2CO)O[C@H](CO)[C@@H](O)[C@@H]1O (stereo partly shown) [compound 13, N,N′-diacetylchitobiose] | strongly |  | 
6 | C[C@@H]1O[C@@H](O[C@H]2[C@H](O[C@@H]3O[C@H](CO)[C@H](O)[C@H](O)[C@H]3O)[C@@H](CO)OC(O)[C@@H]2O)[C@@H](O)[C@H](O)[C@@H]1O (stereo partly shown) [compound 17, Fucα1,3(Galβ1,4)Glc] |  | strongly bound | 
7 | CC(=O)N[C@H]1[C@H]([C@H](O)[C@H](O)CO)O[C@@](O[C@H]2[C@@H](O)[C@@H](CO)O[C@@H](O[C@H]3[C@H](O)[C@@H](NC(C)=O)C(O)O[C@@H]3CO)[C@@H]2O)(C(=O)O)C[C@@H]1O (stereo partly shown) [compound 18, NeuNAcα2,3Galβ1,4GlcNAc] | weakly bound |  | 
8 | CC(=O)N[C@H]1[C@H]([C@H](O)[C@H](O)CO)O[C@@](O[C@H]2[C@@H](O)[C@@H](CO)O[C@@H](O[C@H]3[C@H](O[C@@H]4O[C@@H](C)[C@@H](O)[C@@H](O)[C@@H]4O)[C@@H](NC(C)=O)C(O)O[C@@H]3CO)[C@@H]2O)(C(=O)O)C[C@@H]1O (stereo partly shown) [compound 19, Sialyl Le^x] | less strongly | very weakly bound | recognition by anti-sialyl Le^x antibody (fluorescence image of the chip) [4]: selectively recognized
9 | CC(=O)N[C@H]1[C@H](O[C@H]2[C@@H](O)[C@@H](CO)O[C@@H](O[C@H]3[C@H](O)[C@@H](O)C(O)O[C@@H]3CO)[C@@H]2O)O[C@H](CO)[C@@H](O[C@@H]2O[C@@H](C)[C@@H](O)[C@@H](O)[C@@H]2O)[C@@H]1O[C@@H]1O[C@H](CO)[C@H](O)[C@H](O)[C@H]1O[C@@H]1O[C@@H](C)[C@@H](O)[C@@H](O)[C@@H]1O (stereo partly shown) [compound 20, Fucα1,2Galβ1,3(Fucα1,4)GlcNAcβ1,3Galβ1,4Glc] |  | strongly bound | 
10 | Galβ1,4GlcNac [compound 15] | weakly bound |  | 
11 | Mannan [compound 21] |  |  | binding of ConA to immobilized carbohydrate (fluorescence intensity of the spots) [1]: strong binding; binding of E. coli ORN178 to carbohydrate spots [5]: binds
12 | Manα1,6Man [compound 16] |  |  | binding of ConA to immobilized carbohydrate (fluorescence intensity of the spots) [1]: less strong binding; binding of E. coli ORN178 to carbohydrate spots [5]: binds

Source: patent US20060252030A1, “Fabrication of carbohydrate chips by immobilizing unmodified carbohydrates on derivatized solid surfaces, and their uses” (priority 2005, published 2006)
